According to article PMC6271228, “Diethyl 2-(Phenylcarbamoyl)phenyl Phosphorothioates: Synthesis, Antimycobacterial Activity and Cholinesterase Inhibition” (Molecules, 2014):
Values after ≈ are worked out from the molar mass of the structure shown. Where two headings read alike, the source gives them in different places.

What was measured:
BChE from equine serum = target: T1, BChE from equine serum (Equus caballus, UniProt P81908); assay: BChE inhibition, modified Ellman's method; format: biochemical
T1 construct: butyrylcholinesterase from equine serum; from tissue; host or cells: equine serum
Text: (§1) The ability of the tested compounds to inhibit AChE from electric eel (Electrophorus electricus L.) and BChE from equine serum was screened in vitro using modified Ellman’s method for the evaluation of cholinesterase activity. […] […]. These two standards were chosen due to their different structures. […]. The choice of these drugs with different mechanism of action can provide relevant results. All tested compounds expressed a good inhibitory activity with IC50s in low micromolar values.
(§2) The IC50 values were determined using the spectrophotometric Ellman’s method, which is a simple, rapid and direct method to determine the SH and -S-S- group content in proteins. This method is widely used for cholinesterase activity evaluation and screening of the efficiency of cholinesterase inhibitors. Cholinesterase activity is measured indirectly by quantifying the concentration of 5-thio-2-nitrobenzoic acid (TNB) ion formed in the reaction between the thiol reagent 5,5'-dithiobis-2-nitrobenzoic acid (DTNB) and thiocholine, a product of substrate hydrolysis by cholinesterase (i.e., acetylthiocholine, ATCh). All the tested compounds were dissolved in dimethyl sulfoxide (concentration 0.01 M) and then diluted in demineralised water (concentration 0.001 M and 0.0001 M). The Ellman’s method is slightly modified according to Zdrazilova et al.. Acetylcholinesterase was obtained from electric eel (Electrophorus electricus L.) and butyrylcholinesterase from equine serum.

AChE from electric eel = target: T2, AChE from electric eel (Electrophorus electricus, UniProt O42275); assay: AChE inhibition, modified Ellman's method; format: biochemical, Electrophorus electricus L.
T2 construct: Acetylcholinesterase was obtained from electric eel (Electrophorus electricus L.); from tissue; host or cells: electric eel (Electrophorus electricus L.)
Text: as §1, §2

M. kansasii My 235/80 = assay: microbe, parasite or virus in culture; format: cell-based, Mycobacterium kansasii; settings: for MIC: Mycobacterium kansasii, 37 °C; for MICs for M. kansasii 235/80: all time points
M. avium My 330/88 = assay: microbe, parasite or virus in culture; format: cell-based, Mycobacterium avium; settings: for MIC: Mycobacterium avium, 37 °C; for MIC values against M. avium: all MIC values (14 and 21 d)
[1] = system: Mycobacterium tuberculosis My 331/88 (H37Rv); assay: microbe, parasite or virus in culture; format: cell-based
[2] = system: M. kansasii 6509/96 (clinically isolated); assay: microbe, parasite or virus in culture; format: cell-based; settings: Mycobacterium kansasii, 37 °C
[3] = MY235/80, 168 h, 7 d, read-out: MIC M. kansasii 235/80 7 d
[4] = MY235/80, 336 h, 14 d, read-out: MIC M. kansasii 235/80 14 d
[5] = MY235/80, 504 h, 21 d, read-out: MIC M. kansasii 235/80 21 d
[6] = MY330/88, 336 h, 14 d, read-out: MIC M. avium 330/88 14 d
[7] = MY330/88, 504 h, 21 d, read-out: MIC M. avium 330/88 21 d
[8] = 336 h, 14 d, 37 °C, read-out: MIC Mtb 331/88 (H37Rv) 14 d
[9] = 504 h, 21 d, 37 °C, read-out: MIC Mtb 331/88 (H37Rv) 21 d
[10] = 168 h, 7 d, read-out: MIC M. kansasii 6509/96 7 d
[11] = 336 h, 14 d, read-out: MIC M. kansasii 6509/96 14 d
[12] = 504 h, 21 d, read-out: MIC M. kansasii 6509/96 21 d

T2 sequence (O42275 24-633): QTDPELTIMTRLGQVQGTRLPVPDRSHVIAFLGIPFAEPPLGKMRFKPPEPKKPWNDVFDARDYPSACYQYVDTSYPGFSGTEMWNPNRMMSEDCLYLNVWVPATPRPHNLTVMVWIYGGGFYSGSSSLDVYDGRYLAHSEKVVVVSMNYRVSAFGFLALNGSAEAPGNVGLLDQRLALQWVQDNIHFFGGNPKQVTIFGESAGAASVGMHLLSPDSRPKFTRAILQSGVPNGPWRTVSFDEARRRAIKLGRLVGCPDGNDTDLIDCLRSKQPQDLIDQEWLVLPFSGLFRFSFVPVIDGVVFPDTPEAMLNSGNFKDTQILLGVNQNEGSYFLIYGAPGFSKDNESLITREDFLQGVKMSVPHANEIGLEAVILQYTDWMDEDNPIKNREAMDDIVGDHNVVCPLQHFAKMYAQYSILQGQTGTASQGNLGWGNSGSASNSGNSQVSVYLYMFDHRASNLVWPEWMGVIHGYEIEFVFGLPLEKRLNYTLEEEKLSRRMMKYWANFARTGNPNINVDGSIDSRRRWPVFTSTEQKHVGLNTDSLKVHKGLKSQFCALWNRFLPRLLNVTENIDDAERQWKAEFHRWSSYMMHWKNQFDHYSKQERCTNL
T1 sequence (P81908 whole entry): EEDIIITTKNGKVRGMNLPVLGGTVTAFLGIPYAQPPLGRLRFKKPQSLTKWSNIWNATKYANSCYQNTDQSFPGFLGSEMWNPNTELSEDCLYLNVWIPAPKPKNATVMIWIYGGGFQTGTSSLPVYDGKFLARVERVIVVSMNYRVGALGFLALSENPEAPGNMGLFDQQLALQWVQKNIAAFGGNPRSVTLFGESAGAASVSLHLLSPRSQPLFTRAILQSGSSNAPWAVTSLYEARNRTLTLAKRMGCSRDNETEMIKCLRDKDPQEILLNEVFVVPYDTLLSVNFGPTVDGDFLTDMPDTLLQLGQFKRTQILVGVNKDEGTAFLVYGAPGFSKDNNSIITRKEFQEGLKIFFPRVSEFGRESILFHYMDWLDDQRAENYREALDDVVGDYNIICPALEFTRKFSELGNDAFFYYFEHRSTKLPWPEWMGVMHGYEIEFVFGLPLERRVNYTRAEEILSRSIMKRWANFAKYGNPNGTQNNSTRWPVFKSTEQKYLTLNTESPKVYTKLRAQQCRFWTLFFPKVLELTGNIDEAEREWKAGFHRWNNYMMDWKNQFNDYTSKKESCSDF

Compound | IC50 (BChE from equine serum) [µM] | IC50 (AChE from electric eel) [µM] | MIC (M. kansasii My 235/80; [3]) [µM] | MIC (M. kansasii My 235/80; [4]) [µM] | MIC (M. kansasii My 235/80; [5]) [µM] | MIC (M. avium My 330/88; [6]) [µM] | MIC (M. avium My 330/88; [7]) [µM] | MIC [1, 8] [µM] | MIC [1, 9] [µM] | MIC [2, 10] [µM] | MIC [2, 11] [µM] | MIC [2, 12] [µM] | MIC ([1]; read-out: MIC against Mtb) [µM] | MICs for M. kansasii 235/80 (M. kansasii My 235/80) [µM] | MIC values against M. avium (M. avium My 330/88) [µM]
CCOP(=S)(OCC)Oc1ccc(Br)cc1C(=O)Nc1cccc(Cl)c1 [1a, O-{4-Bromo-2-[(3-chlorophenyl)carbamoyl]phenyl} O,O-diethyl phosphorothioate] | 13.9 ± 0.05 | 12.6 ± 0.05 | 125 (≈ 59.8 µg/mL) | 500 (≈ 239 µg/mL) | 500 (≈ 239 µg/mL) | 500 (≈ 239 µg/mL) | > 500 | 8 (≈ 3.83 µg/mL) | 16 (≈ 7.66 µg/mL) | 125 (≈ 59.8 µg/mL) | 500 (≈ 239 µg/mL) | 500 (≈ 239 µg/mL) | – | – | –
CCOP(=S)(OCC)Oc1ccc(Br)cc1C(=O)Nc1ccc(Cl)cc1 [1b, O-{4-Bromo-2-[(4-chlorophenyl)carbamoyl]phenyl} O,O-diethyl phosphorothioate] | 13.5 ± 0.9 | 12.9 ± 0.1 | 125 (≈ 59.8 µg/mL) | 500 (≈ 239 µg/mL) | 500 (≈ 239 µg/mL) | 500 (≈ 239 µg/mL) | 500 (≈ 239 µg/mL) | 16 (≈ 7.66 µg/mL) | 16 (≈ 7.66 µg/mL) | 125 (≈ 59.8 µg/mL) | 500 (≈ 239 µg/mL) | 500 (≈ 239 µg/mL) | – | – | –
CCOP(=S)(OCC)Oc1ccc(Br)cc1C(=O)Nc1ccc(Cl)c(Cl)c1 [1c, O-{4-Bromo-2-[(3,4-dichlorophenyl)carbamoyl]phenyl} O,O-diethyl phosphorothioate] | 18.8 ± 0.7 | 14 ± 0.1 | 62.5 (≈ 32.1 µg/mL) | 250 (≈ 128 µg/mL) | 500 (≈ 257 µg/mL) | 500 (≈ 257 µg/mL) | 500 (≈ 257 µg/mL) | 4 (≈ 2.05 µg/mL) | 4 (≈ 2.05 µg/mL) | 62.5 (≈ 32.1 µg/mL) | 125 (≈ 64.1 µg/mL) | 125 (≈ 64.1 µg/mL) | 4 (≈ 2.05 µg/mL) | – | –
CCOP(=S)(OCC)Oc1ccc(Br)cc1C(=O)Nc1cccc(Br)c1 [1d] | 20 ± 0.2 | 11.3 ± 0.05 | 125 (≈ 65.4 µg/mL) | 125 (≈ 65.4 µg/mL) | 125 (≈ 65.4 µg/mL) | 125 (≈ 65.4 µg/mL) | 125 (≈ 65.4 µg/mL) | 16 (≈ 8.37 µg/mL) | 16 (≈ 8.37 µg/mL) | 125 (≈ 65.4 µg/mL) | 125 (≈ 65.4 µg/mL) | 125 (≈ 65.4 µg/mL) | – | ≤ 250 | ≤ 250
CCOP(=S)(OCC)Oc1ccc(Br)cc1C(=O)Nc1ccc(Br)cc1 [1e, O-{4-Bromo-2-[(4-bromophenyl)carbamoyl]phenyl} O,O-diethyl phosphorothioate] | 18.9 ± 0.2 | 10.7 | 125 (≈ 65.4 µg/mL) | 250 (≈ 131 µg/mL) | 250 (≈ 131 µg/mL) | 250 (≈ 131 µg/mL) | 250 (≈ 131 µg/mL) | 8 (≈ 4.19 µg/mL) | 16 (≈ 8.37 µg/mL) | 62.5 (≈ 32.7 µg/mL) | 250 (≈ 131 µg/mL) | 250 (≈ 131 µg/mL) | – | ≤ 250 | ≤ 250
CCOP(=S)(OCC)Oc1ccc(Br)cc1C(=O)Nc1cccc(F)c1 [1f, O-{4-Bromo-2-[(3-fluorophenyl)carbamoyl]phenyl} O,O-diethyl phosphorothioate] | 12.2 | 12.7 ± 0.05 | 62.5 (≈ 28.9 µg/mL) | 250 (≈ 116 µg/mL) | 500 (≈ 231 µg/mL) | 250 (≈ 116 µg/mL) | 500 (≈ 231 µg/mL) | 8 (≈ 3.7 µg/mL) | 16 (≈ 7.4 µg/mL) | 62.5 (≈ 28.9 µg/mL) | 250 (≈ 116 µg/mL) | 250 (≈ 116 µg/mL) | – | – | –
CCOP(=S)(OCC)Oc1ccc(Br)cc1C(=O)Nc1ccc(F)cc1 [1g, O-{4-Bromo-2-[(4-fluorophenyl)carbamoyl]phenyl} O,O-diethyl phosphorothioate] | 12.6 ± 0.3 | 12.4 ± 0.05 | 125 (≈ 57.8 µg/mL) | 500 (≈ 231 µg/mL) | > 500 | 500 (≈ 231 µg/mL) | > 500 | 32 (≈ 14.8 µg/mL) | 32 (≈ 14.8 µg/mL) | 125 (≈ 57.8 µg/mL) | 250 (≈ 116 µg/mL) | 250 (≈ 116 µg/mL) | – | – | –
